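Cells were grown in 96-well plates and exposed to each compound for 48 hours at five concentrations; endpoints were interpolated linearly between bracketing concentrations, or set to the highest concentration if not reached. TGI marks complete inhibition of growth.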
What was measured:
Assay in all cases: growth of human tumour cells (NCI), 48 h
[1] = system: BT-549 breast
[2] = system: CCRF-CEM leukemia
[3] = system: HOP-92 NSCLC
[4] = system: HS 578T breast
[5] = system: K-562 leukemia
[6] = system: MDA-MB-435
[7] = system: NCI-H226 lung
[8] = system: SK-MEL-5 melanoma
[9] = system: SN12C renal
[10] = system: UACC-257 melanoma

O=c1[nH]c(Nc2cc(Cl)cc(Cl)c2)nc2nc[nH]c12
TGI [1]: > 75 µM
TGI [2]: > 75 µM
TGI [3]: > 75 µM
TGI [4]: 68.5 µM
TGI [5]: > 75 µM
TGI [6]: > 75 µM
TGI [7]: > 75 µM
TGI [8]: > 75 µM
TGI [9]: > 75 µM
TGI [10]: > 75 µM

CCCCN1C(=O)c2c(-c3sccc3N)sc(-c3sccc3N)c2C1=O
TGI [1]: > 88.9 µM
TGI [2]: > 31 µM
TGI [3]: > 100 µM
TGI [4]: 83.6 µM
TGI [5]: > 100 µM
TGI [6]: > 100 µM
TGI [7]: 42.7 µM
TGI [8]: > 100 µM
TGI [9]: > 55 µM
TGI [10]: > 100 µM

C#CC1(O)C(COP(=O)(O)OCC2OC(n3ccc(NCCCCCCCCCCCCCCCCCC)nc3=O)C(O)C2O)OC(n2ccc(N)nc2=O)C1O (stereo not given)
TGI [1]: 29.8 µM
TGI [2]: > 100 µM
TGI [3]: 59.8 µM
TGI [4]: 45.2 µM
TGI [5]: 19.9 µM
TGI [6]: 7.57 µM
TGI [7]: > 46.4 µM
TGI [8]: 26 µM
TGI [9]: 39.9 µM
TGI [10]: 60.2 µM

Cc1noc2nnn(-c3ccc(Cl)cc3)c(=O)c12
TGI [1]: 13.5 µM
TGI [2]: 2.48 µM
TGI [3]: 17.9 µM
TGI [4]: > 60.3 µM
TGI [5]: 11.2 µM
TGI [6]: 16.2 µM
TGI [7]: 9.83 µM
TGI [8]: 13 µM
TGI [9]: 12.2 µM
TGI [10]: 20.9 µM

CC(=O)N(O)[C@@H]1CC[C@H](n2cnc3c(N)ncnc32)C1
TGI [1]: > 100 µM
TGI [2]: > 100 µM
TGI [3]: > 100 µM
TGI [4]: > 100 µM
TGI [5]: > 100 µM
TGI [6]: > 100 µM
TGI [7]: > 100 µM
TGI [8]: > 100 µM
TGI [9]: > 100 µM
TGI [10]: > 100 µM

CC1(CCCO)CCCCCCCCCC(C)(CCCO)C1=O (stereo not given)
TGI [1]: > 100 µM
TGI [2]: > 100 µM
TGI [3]: > 100 µM
TGI [4]: > 100 µM
TGI [5]: > 100 µM
TGI [6]: > 100 µM
TGI [7]: > 100 µM
TGI [8]: > 100 µM
TGI [9]: > 100 µM
TGI [10]: > 100 µM

O=C/C=C/c1ccco1
TGI [1]: > 100 µM
TGI [2]: > 100 µM
TGI [3]: > 100 µM
TGI [4]: > 100 µM
TGI [5]: > 100 µM
TGI [6]: > 100 µM
TGI [7]: > 100 µM
TGI [8]: > 100 µM
TGI [9]: > 100 µM
TGI [10]: > 100 µM

COc1cc(COC(=O)N(CC(=O)O)c2ccccc2)c([N+](=O)[O-])cc1OC
TGI [1]: > 100 µM
TGI [2]: > 100 µM
TGI [3]: > 100 µM
TGI [4]: > 100 µM
TGI [5]: > 100 µM
TGI [6]: > 100 µM
TGI [7]: > 100 µM
TGI [8]: > 100 µM
TGI [9]: > 100 µM
TGI [10]: > 100 µM

Cc1cc(C)nc(SC(C)C(=O)N/N=C/c2ccc(OCc3ccccc3)cc2)n1 (stereo not given)
TGI [1]: > 100 µM
TGI [2]: > 100 µM
TGI [3]: > 100 µM
TGI [4]: > 100 µM
TGI [5]: > 100 µM
TGI [6]: > 100 µM
TGI [7]: 93.5 µM
TGI [8]: 20.5 µM
TGI [9]: > 100 µM
TGI [10]: 37.9 µM

N#CCCN(CCC#N)c1ccc(/C=C2\N=C(c3ccccc3)N(NC(N)=S)C2=O)cc1
TGI [1]: > 100 µM
TGI [2]: > 100 µM
TGI [3]: > 100 µM
TGI [4]: > 100 µM
TGI [5]: > 100 µM
TGI [6]: > 100 µM
TGI [7]: > 100 µM
TGI [8]: > 100 µM
TGI [9]: > 100 µM
TGI [10]: > 100 µM

O=C(/C=C/c1ccc(/C=C/C(=O)c2ccc(O)cc2)cc1)c1ccc(O)cc1
TGI [1]: > 100 µM
TGI [2]: > 100 µM
TGI [3]: > 100 µM
TGI [4]: > 100 µM
TGI [5]: > 100 µM
TGI [6]: > 100 µM
TGI [7]: > 100 µM
TGI [8]: > 100 µM
TGI [9]: > 100 µM
TGI [10]: > 100 µM

Brc1ccc2c([C@H]3CN[C@@H](c4c[nH]c5cc(Br)ccc45)CN3)c[nH]c2c1
TGI [1]: 24.7 µM
TGI [2]: 8.64 µM
TGI [3]: 12.2 µM
TGI [4]: 25.2 µM
TGI [5]: 4.02 µM
TGI [6]: 3.11 µM
TGI [7]: 20.8 µM
TGI [8]: 15.6 µM
TGI [9]: 12.4 µM
TGI [10]: 28.1 µM

CC(=C(C(N)=O)C(N)=O)C1C=C(c2cccs2)CC(c2ccc(Cl)cc2)=C1O (stereo not given)
TGI [1]: > 100 µM
TGI [2]: 79.4 µM
TGI [3]: > 100 µM
TGI [4]: > 100 µM
TGI [5]: > 100 µM
TGI [6]: > 100 µM
TGI [7]: > 100 µM
TGI [8]: > 100 µM
TGI [9]: > 100 µM
TGI [10]: > 100 µM

O=C1[C@@H]2[C@@H](c3ccccc3)[C@]2(Cl)C(=O)[C@H]2[C@H](c3ccccc3)[C@@]12Cl
TGI [1]: > 100 µM
TGI [2]: > 100 µM
TGI [3]: > 100 µM
TGI [4]: > 100 µM
TGI [5]: > 100 µM
TGI [6]: > 100 µM
TGI [7]: > 100 µM
TGI [8]: > 100 µM
TGI [9]: > 100 µM
TGI [10]: > 100 µM

COc1ccc(/C=C2\CCC(CNc3ccc(OC)cc3)C2=O)cc1 (stereo not given)
TGI [1]: 26.8 µM
TGI [2]: 29.9 µM
TGI [3]: 42.7 µM
TGI [4]: > 100 µM
TGI [5]: > 33.3 µM
TGI [6]: 40.6 µM
TGI [7]: > 100 µM
TGI [8]: 35.2 µM
TGI [9]: 33.1 µM
TGI [10]: 34.5 µM

CCOC(=O)c1c(N2CCCC2)[nH]c(=O)c(C(c2ccco2)c2c(O)c(C(=O)OCC)c(N3CCCC3)[nH]c2=O)c1O
TGI [1]: > 100 µM
TGI [2]: > 100 µM
TGI [3]: > 100 µM
TGI [4]: > 100 µM
TGI [5]: > 100 µM
TGI [6]: > 100 µM
TGI [7]: > 100 µM
TGI [8]: > 100 µM
TGI [9]: > 100 µM
TGI [10]: > 100 µM

Cc1cc(Cc2c(F)c(F)c(C(c3cc(C)no3)c3c(F)c(F)c(F)c(F)c3F)c(F)c2F)on1 (stereo not given)
TGI [1]: > 100 µM
TGI [2]: > 100 µM
TGI [3]: > 100 µM
TGI [4]: > 100 µM
TGI [5]: > 100 µM
TGI [6]: > 41.9 µM
TGI [7]: > 100 µM
TGI [8]: > 100 µM
TGI [9]: > 100 µM
TGI [10]: > 100 µM

COc1ccc(OC)c(CC2CCc3nc(N)nc(N)c3C2)c1 (stereo not given)
TGI [1]: 6.22 µM
TGI [2]: > 100 µM
TGI [3]: 77.4 µM
TGI [4]: > 70.8 µM
TGI [5]: > 100 µM
TGI [6]: 54 µM
TGI [7]: > 49.4 µM
TGI [8]: 28.9 µM
TGI [9]: > 100 µM
TGI [10]: 34.4 µM

Nc1nc(Cl)cc(NCCC2(CO)CCC2)n1
TGI [1]: > 100 µM
TGI [2]: > 100 µM
TGI [3]: > 100 µM
TGI [4]: > 100 µM
TGI [5]: > 100 µM
TGI [6]: > 100 µM
TGI [7]: > 100 µM
TGI [8]: > 100 µM
TGI [9]: > 100 µM
TGI [10]: > 100 µM

CC1C2CC(C(S(=O)(=O)N3CCOCC3)/C2=N\O)C1(C)C (stereo not given)
TGI [1]: > 100 µM
TGI [2]: > 100 µM
TGI [3]: > 100 µM
TGI [4]: > 100 µM
TGI [5]: > 100 µM
TGI [6]: > 100 µM
TGI [7]: > 100 µM
TGI [8]: > 100 µM
TGI [9]: > 100 µM
TGI [10]: > 100 µM

Reference: PubChem BioAssay (NCI)
